Measured values reported in US20230119806A1, “ANTIGEN SPECIFIC EPITOPE BASED ANTI-INFECTIVE VACCINES” (VAXIL BIOTHERAPEUTICS LTD., priority 2020, published 2023).

Legend:
[1] = test system: splenocytes of immunized BALB/c mice; assay: ELISpot of interferon gamma after SP stimulation of splenocytes; assay type: cell-based
Protocol: (§1) BALB/c and C57BL/6 mice were immunized by subcutaneous (SC) injections with 100 μg of individual SPs or a SP mixture and with intraperitoneal injections of 100 ng of mouse granulocyte macrophage colony stimulating factor (mGM-CSF) three times at 7-day intervals.

BALB/c and C57BL/6 mice = assay: ELISA of sera of mice immunized with signal peptides (antibody response); assay type: in vivo; details: for antibody response against VXL-301 (ELISA): VXL-301 coated plate; for antibody responses of immunized mice (ELISA, overall): summary of BALB/c and C57BL/6 ELISA results; for antibody response against VXL-303 (ELISA): VXL-303 coated plate
Protocol: as §1
To monitor if antibody response was developed against the SPs an enzyme-linked immunosorbent assay (ELISA) was performed with sera obtained on days 10 and 20 post the last immunization when VXL-301, or VXL-302, or VXL-303 or VXL-201c (negative control) were coated on the ELISA plate.

[2] = test system: splenocytes of immunized C57BL/6 mice; assay: ELISpot of interleukin 2 after SP stimulation of splenocytes; assay type: cell-based; details: SP stimulation of splenocytes of immunized C57BL/6 mice
Protocol: as §1

[3] = test system: Peripheral blood mononuclear cells (PBMCs) from healthy donors; assay: Ex vivo immunogenicity: proliferation of PBMCs stimulated by SP-loaded autologous dendritic cells; assay type: cell-based; details: healthy donor PBMCs; for proliferation in CD4+ and CD8+ T cells / proliferation versus positive control SPs: SP-loaded autologous DCs
Protocol: Immunogenicity is assessed by quantifying proliferation of T cells in response to exposure to peptides. To this end, healthy donor peripheral blood mononuclear cells (PBMCs) are marked by a fluorescent dye and exposed to either the naked peptide or to autologous antigen presenting cells (APCs) pre-loaded with the SP. Phytohaemagglutinin (PHA), or tetanus toxoid, (TT), or previously tested SPs, serve as a positive control for maximum stimulation. Unloaded APCs, or medium, or human Fab fragments serve as negative controls. Proliferation is calculated by the increase of CD3+ T cells and the fraction of cells with different number of cell divisions assessed by flow cytometry.
Peripheral blood mononuclear cells (PBMCs) from healthy donors were stimulated by SP-loaded autologous dendritic cells (DCs).

[4] = BALB/c mice, sera day 10 post last immunization, 100 μg SC + mGM-CSF, three times
[5] = C57BL/6 mice, sera day 20 post last immunization

Sequence	secretion of interferon gamma (ELISpot) [1]	antibody response against VXL-301 (ELISA) (BALB/c and C57BL/6 mice; [4])	antibody response against VXL-301 (ELISA) (BALB/c and C57BL/6 mice; [5])	antibody responses of immunized mice (ELISA, overall) (BALB/c and C57BL/6 mice)	secretion of interleukin 2 (ELISpot) [2]	proliferation versus unloaded DCs (non-specific proliferation) [3]	proliferation in CD4+ and CD8+ T cells [3]	proliferation versus positive control SPs [3]	antibody response against VXL-303 (ELISA) (BALB/c and C57BL/6 mice; [4])	antibody response against VXL-303 (ELISA) (BALB/c and C57BL/6 mice; [5])
MFVFLVLLPLVSSQC [VXL-301]	induced secretion of interferon gamma primarily in the VXL-301- and the SP mixture-immunized groups	greatest antibody response	highest antibody responses	demonstrated antibody responses	induced secretion of interleukin 2 primarily in the VXL-301- and the SP mixture-immunized groups	proliferation that was greater than unloaded DCs	evident in both CD4+ cytotoxic T cells and CD8+ helper T cells	comparable to the levels observed for positive control SPs		
MKIILFLALITLATC [VXL-302, signal peptide of SARS-CoV-2 ORF7a]	induced secretion of interferon gamma primarily in the VXL-302 immunized group				induced secretion of interleukin 2 primarily in the VXL-302-immunized group	proliferation that was greater than unloaded DCs	evident in both CD4+ cytotoxic T cells and CD8+ helper T cells	comparable to the levels observed for positive control SPs		
MKFLVFLGIITTVAA [VXL-303]	induced secretion of interferon gamma primarily in the VXL-303- and the SP mixture-immunized groups			demonstrated antibody responses	induced secretion of interleukin 2 primarily in the VXL-303- and the SP mixture-immunized groups	proliferation that was greater than unloaded DCs	evident in both CD4+ cytotoxic T cells and CD8+ helper T cells	comparable to the levels observed for positive control SPs	greatest antibody response	highest antibody responses
